Tests used:
Test in all cases: relative viability (nuclei count vs DMSO), 5 days (fraction); higher = more cells survive
NCI-H2126 = test system: NCI-H2126
How it was run: (§1)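 A single step with final 0.05% Triton X-100, 1% formaldehyde and 1 ug/ml Hoechst fixed the cells and stained nuclei 5 days after treatment. Lung cancer cell lines in 1536-well plates had been treated by pin tool the day after seeding with one drug alone or a fixed anchor-drug dose plus five library-drug doses (not always all listed) in √10 steps, and nuclei were counted on 4× images. Relative viability is the ratio of nuclei in treated wells to nuclei in vehicle wells, taken as the median of duplicate plates.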

NCI-H2405 = test system: NCI-H2405
How it was run: as §1

SK-LU-1 = test system: SK-LU-1
How it was run: as §1

COR-L23 = test system: COR-L23
How it was run: as §1

UMC-11 = test system: UMC-11
How it was run: as §1

NCI-H2023 = test system: NCI-H2023
How it was run: as §1

NCI-H838 = test system: NCI-H838
How it was run: as §1

LC-2-ad = test system: LC-2-ad
How it was run: as §1

HCC-15 = test system: HCC-15
How it was run: as §1

HARA = test system: HARA
How it was run: as §1

A-427 = test system: A-427
How it was run: as §1

Compound: NC(=O)Nc1cc(-c2cccc(F)c2)sc1C(=O)N[C@H]1CCCNC1 [AZD7762] + CC1(C)CCC(c2ccc(Cl)cc2)=C(CN2CCN(c3ccc(C(=O)NS(=O)(=O)c4ccc(N[C@H](CCN5CCOCC5)CSc5ccccc5)c(S(=O)(=O)C(F)(F)F)c4)cc3)CC2)C1 [Navitoclax] (partner 0.5 µM)
- relative viability (NCI-H2126; first compound 0.01 µM): 0.811
- relative viability (NCI-H2126; first compound 0.03162 µM): 0.866
- relative viability (NCI-H2126; first compound 0.1 µM): 0.889
- relative viability (NCI-H2126; first compound 0.3162 µM): 0.79
- relative viability (NCI-H2126; first compound 1 µM): 0.91
- relative viability (NCI-H2405; first compound 0.01 µM): 0.812
- relative viability (NCI-H2405; first compound 0.03162 µM): 0.925
- relative viability (NCI-H2405; first compound 0.1 µM): 0.873
- relative viability (NCI-H2405; first compound 0.3162 µM): 0.675
- relative viability (NCI-H2405; first compound 1 µM): 0.244
- relative viability (SK-LU-1; first compound 0.01 µM): 0.895
- relative viability (SK-LU-1; first compound 0.03162 µM): 0.649
- relative viability (SK-LU-1; first compound 0.1 µM): 0.251
- relative viability (SK-LU-1; first compound 0.3162 µM): 0.103
- relative viability (SK-LU-1; first compound 1 µM): 0.138
- relative viability (COR-L23; first compound 0.01 µM): 1.28
- relative viability (COR-L23; first compound 0.03162 µM): 1.01
- relative viability (COR-L23; first compound 0.1 µM): 1.01
- relative viability (COR-L23; first compound 0.3162 µM): 0.891
- relative viability (COR-L23; first compound 1 µM): 0.194
- relative viability (UMC-11; first compound 0.01 µM): 0.312
- relative viability (UMC-11; first compound 0.03162 µM): 0.32
- relative viability (UMC-11; first compound 0.1 µM): 0.272
- relative viability (UMC-11; first compound 0.3162 µM): 0.307
- relative viability (UMC-11; first compound 1 µM): 0.21
- relative viability (NCI-H2023; first compound 0.01 µM): 0.992
- relative viability (NCI-H2023; first compound 0.03162 µM): 0.771
- relative viability (NCI-H2023; first compound 0.1 µM): 0.663
- relative viability (NCI-H2023; first compound 0.3162 µM): 0.287
- relative viability (NCI-H2023; first compound 1 µM): 0.118
- relative viability (NCI-H838; first compound 0.01 µM): 1.19
- relative viability (NCI-H838; first compound 0.03162 µM): 1.15
- relative viability (NCI-H838; first compound 0.1 µM): 1.09
- relative viability (NCI-H838; first compound 0.3162 µM): 1.03
- relative viability (NCI-H838; first compound 1 µM): 0.576
- relative viability (LC-2-ad; first compound 0.01 µM): 0.491
- relative viability (LC-2-ad; first compound 0.03162 µM): 0.476
- relative viability (LC-2-ad; first compound 0.1 µM): 0.415
- relative viability (LC-2-ad; first compound 0.3162 µM): 0.414
- relative viability (LC-2-ad; first compound 1 µM): 0.309
- relative viability (HCC-15; first compound 0.01 µM): 0.663
- relative viability (HCC-15; first compound 0.03162 µM): 0.708
- relative viability (HCC-15; first compound 0.1 µM): 0.771
- relative viability (HCC-15; first compound 0.3162 µM): 0.728
- relative viability (HCC-15; first compound 1 µM): 0.789
- relative viability (HARA; first compound 0.01 µM): 1.12
- relative viability (HARA; first compound 0.03162 µM): 1.15
- relative viability (HARA; first compound 0.1 µM): 1.2
- relative viability (HARA; first compound 0.3162 µM): 1.12
- relative viability (HARA; first compound 1 µM): 0.801
- relative viability (A-427; first compound 0.01 µM): 0.951
- relative viability (A-427; first compound 0.03162 µM): 0.948
- relative viability (A-427; first compound 0.1 µM): 1.08
- relative viability (A-427; first compound 0.3162 µM): 1.04
- relative viability (A-427; first compound 1 µM): 0.36

Reference: the supplement of paper PMC10307832
